Assay results published in US20240158446A1, “CYCLIC COMPOUND HAVING SELECTIVE INHIBITORY ACTION ON KRAS OVER HRAS AND NRAS” (CHUGAI SEIYAKU KABUSHIKI KAISHA, priority 2021, published 2024).
pKd: −log10 of the molar value. Like-named read-outs stand apart in the source and are kept apart here. *1 amine or outer side, *2 acyl side, *3 side chain or, on linkers, in order; H or OH if unused. Where a SMILES comes first, the peptide text is derived from it. Bridges are numbered along the chain shown (N, C = ends). [ ]: non-standard residue; d: D form. The star is where a group is joined. hPhe(3,5-F2-4-CF3) = N[C@@H](CCc1cc(F)c(C(F)(F)F)c(F)c1)C(=O)O; hPhe(3-Cl-4-CF3) = N[C@@H](CCc1ccc(C(F)(F)F)c(Cl)c1)C(=O)O; X31 = COCCCN([C@@H](Cc1ccc(C(F)(F)F)cc1)C(=O)[*:2])[*:1]; NPrPhe(4-CF3) = CCCN[C@@H](Cc1ccc(C(F)(F)F)cc1)C(=O)O; NEtPhe(4-CF3) = CCN[C@@H](Cc1ccc(C(F)(F)F)cc1)C(=O)O; NMeGly(cPent) = CN[C@H](C(=O)O)C1CCCC1; NMeGly(cBu) = CN[C@H](C(=O)O)C1CCC1; X11 = CCC[C@](C)(N[*:1])C(=O)[*:2]; NMeD = CN[C@@H](CC(=O)O)C(=O)O; NMeL = CN[C@@H](CC(C)C)C(=O)O; Pip = O=C(O)[C@@H]1CCCCN1; Morpholide = C1CN(*)CCO1; NMeA = CN[C@@H](C)C(=O)O; Ac5c = NC1(C(=O)O)CCCC1; Aze = O=C(O)[C@@H]1CCN1; Ac3c = NC1(C(=O)O)CC1; Sar = CNCC(=O)O

Key:
[1] = biological target: GDP-bound HRAS wild-type protein (Homo sapiens, UniProt P01112); test: Binding to HRAS by surface plasmon resonance (SPR), Single Cycle Kinetics; conditions: for HRAS/KRAS (ratio of KD value with respect to HRAS to KD value with respect to KRAS) / HRAS/KRAS (ratio of KD value for HRAS to KD value for KRAS): SPR, GDP-bound HRAS wild-type protein vs GDP-bound KRAS wild-type protein
Sequence of GDP-bound HRAS wild-type protein (P01112 whole entry): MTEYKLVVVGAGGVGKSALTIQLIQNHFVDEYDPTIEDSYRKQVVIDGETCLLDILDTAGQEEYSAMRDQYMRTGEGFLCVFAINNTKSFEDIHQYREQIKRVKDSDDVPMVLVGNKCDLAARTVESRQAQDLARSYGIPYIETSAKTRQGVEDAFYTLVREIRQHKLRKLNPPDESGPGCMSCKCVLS

[2] = biological target: GDP-bound KRAS wild-type protein (Homo sapiens, UniProt P01116); test: Binding to KRAS by surface plasmon resonance (SPR), Single Cycle Kinetics; conditions: GDP-bound KRAS wild-type protein, read-out: KRAS KD
Sequence of GDP-bound KRAS wild-type protein (P01116 whole entry): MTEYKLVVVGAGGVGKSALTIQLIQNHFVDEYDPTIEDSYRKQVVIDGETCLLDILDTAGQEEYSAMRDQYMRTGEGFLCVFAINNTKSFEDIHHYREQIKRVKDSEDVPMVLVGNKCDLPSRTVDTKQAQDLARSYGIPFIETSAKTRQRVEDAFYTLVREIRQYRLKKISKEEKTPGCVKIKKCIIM

[3] = biological target: GDP-bound NRAS wild-type protein (Homo sapiens, UniProt P01111); test: Binding to NRAS by surface plasmon resonance (SPR), Single Cycle Kinetics; conditions: for NRAS/KRAS (ratio of KD value with respect to NRAS to KD value with respect to KRAS) / NRAS/KRAS (ratio of KD value for NRAS to KD value for KRAS): SPR, GDP-bound NRAS wild-type protein vs GDP-bound KRAS wild-type protein
Sequence of GDP-bound NRAS wild-type protein (P01111 whole entry): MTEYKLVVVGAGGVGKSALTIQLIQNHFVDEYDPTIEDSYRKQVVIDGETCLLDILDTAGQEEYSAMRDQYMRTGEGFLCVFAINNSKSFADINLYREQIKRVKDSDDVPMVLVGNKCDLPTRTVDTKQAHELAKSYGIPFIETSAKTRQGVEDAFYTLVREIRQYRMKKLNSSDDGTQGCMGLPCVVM

[4] = SPR Single Cycle Kinetics, 1:1 binding model

Compound | HRAS/KRAS (ratio of KD value with respect to HRAS to KD value with respect to KRAS) [1] | pKd [2, 4] | NRAS/KRAS (ratio of KD value with respect to NRAS to KD value with respect to KRAS) [3] | HRAS/KRAS (ratio of KD value for HRAS to KD value for KRAS) [1] | NRAS/KRAS (ratio of KD value for NRAS to KD value for KRAS) [3] | further results
CC(C)C[C@H]1C(=O)N[C@@H](C2CCC2)C(=O)N(C)CC(=O)N(C)[C@H]2CCCCCN(C2=O)[C@@H](Cc2ccc(C(F)(F)F)cc2)C(=O)N(C)CC(=O)N[C@@H](CCc2cc(F)c(C(F)(F)F)c(F)c2)C(=O)N2CCC[C@H]2C(=O)NC2(CCCC2)C(=O)N(C)[C@@H](C2CCCC2)C(=O)N(C)[C@H](C(=O)N2CCOCC2)CC(=O)N1C [PP0522] | B (a compound having 3 or more and less than 10 is denoted as B) | 8.55 | B (a compound having 3 or more and less than 10 is denoted as B) | – | – | –
CCCN1C(=O)CN(C)C(=O)CN(C)C(=O)[C@H]([C@@H](C)CC)NC(=O)[C@H](CC(C)C)N(C)C(=O)C[C@@H](C(=O)N2CCOCC2)N(C)C(=O)[C@H](C2CCCC2)N(C)C(=O)[C@](C)(CCC)NC(=O)[C@@H]2CCCN2C(=O)[C@H](CCc2cc(F)c(C(F)(F)F)c(F)c2)NC(=O)CN(C)C(=O)[C@@H]1Cc1ccc(C(F)(F)F)cc1 [PP0758] ([NMeL]I[Sar][Sar][NPrPhe(4-CF3)][Sar][hPhe(3,5-F2-4-CF3)]P[X11][NMeGly(cPent)][NMeD]-Morpholide; lactam N-11) | C (A compound having a KD ratio of 0.1 or more and less than 3 is denoted as C) | 8.80 | B (a compound having 3 or more and less than 10 is denoted as B) | – | – | –
CC[C@H](C)[C@@H]1NC(=O)[C@H](CC(C)C)N(C)C(=O)C[C@@H](C(=O)N2CCOCC2)N(C)C(=O)[C@H](C2CCCC2)N(C)C(=O)C2(CC2)NC(=O)[C@@H]2CCCN2C(=O)[C@H](CCc2ccc(C(F)(F)F)c(Cl)c2)NC(=O)CN(C)C(=O)[C@H](Cc2ccc(C(F)(F)F)cc2)N(CC)C(=O)[C@@H]2CCN2C(=O)[C@H](C)N(C)C1=O [PP0220] ([NMeL]I[NMeA][Aze][NEtPhe(4-CF3)][Sar][hPhe(3-Cl-4-CF3)]P[Ac3c][NMeGly(cPent)][NMeD]-Morpholide; lactam N-11) | – | 9.46 | – | C (A compound having a KD ratio of 0.1 or more and less than 3 is denoted as C) | C (A compound having a KD ratio of 0.1 or more and less than 3 is denoted as C) | –
CCCN1C(=O)[C@@H]2CCN2C(=O)[C@H](C)N(C)C(=O)[C@H]([C@@H](C)CC)NC(=O)[C@H](CC(C)C)N(C)C(=O)C[C@@H](C(=O)N2CCOCC2)N(C)C(=O)[C@H](C2CCCC2)N(C)C(=O)C2(CCCC2)NC(=O)[C@@H]2CCCCN2C(=O)[C@H](CCc2ccc(C(F)(F)F)c(Cl)c2)NC(=O)CN(C)C(=O)[C@@H]1Cc1ccc(C(F)(F)F)cc1 [PP0284] ([NMeL]I[NMeA][Aze][NPrPhe(4-CF3)][Sar][hPhe(3-Cl-4-CF3)][Pip][Ac5c][NMeGly(cPent)][NMeD]-Morpholide; lactam N-11) | – | 9.17 | – | B (a compound having 3 or more and less than 10 is denoted as B) | C (A compound having a KD ratio of 0.1 or more and less than 3 is denoted as C) | –
CC[C@H](C)[C@@H]1NC(=O)[C@H](CC(C)C)N(C)C(=O)C[C@@H](C(=O)N2CCOCC2)N(C)C(=O)[C@H](C2CCCC2)N(C)C(=O)C2(CCCC2)NC(=O)[C@@H]2CCCN2C(=O)[C@H](CCc2ccc(C(F)(F)F)c(Cl)c2)NC(=O)CN(C)C(=O)[C@H](Cc2ccc(OC(F)(F)F)cc2)N2CC=CC[C@@H](C2=O)N(C)C(=O)CN(C)C1=O [PP0537] | C (A compound having a KD ratio of 0.1 or more and less than 3 is denoted as C) | 8.24 | C (A compound having a KD ratio of 0.1 or more and less than 3 is denoted as C) | – | – | –
CCC[C@H]1C(=O)N[C@@H](C(CC)CC)C(=O)N(C)CC(=O)N(C)[C@H]2C/C=C\CCN(C2=O)[C@@H](Cc2ccc(C)cc2)C(=O)N(C)CC(=O)N[C@@H](CCc2ccc(C(F)(F)F)c(Cl)c2)C(=O)N2C[C@H](OCC)C[C@H]2C(=O)NC2(CC(C)(C)C2)C(=O)N(C)[C@@H](C2CCCC2)C(=O)N(C)[C@H](C(=O)N(C)C)CC(=O)N1C [PP2209] | – | – | – | A (a compound having 10 or more and less than 20 is denoted as A) | A (a compound having 10 or more and less than 20 is denoted as A) | pKd ([2]; SPR, Single Cycle Kinetics): 9.09
CCCN1C(=O)[C@@H]2CCN2C(=O)[C@H](C)N(C)C(=O)[C@H]([C@@H](C)CC)NC(=O)[C@H](C2CCC2)N(C)C(=O)C[C@@H](C(=O)N2CCOCC2)N(C)C(=O)[C@H](C2CCCC2)N(C)C(=O)C2(CCCC2)NC(=O)[C@@H]2CCCN2C(=O)[C@H](CCc2ccc(C(F)(F)F)c(Cl)c2)NC(=O)CN(C)C(=O)[C@@H]1Cc1ccc(C(F)(F)F)cc1 [PP0192] ([NMeGly(cBu)]I[NMeA][Aze][NPrPhe(4-CF3)][Sar][hPhe(3-Cl-4-CF3)]P[Ac5c][NMeGly(cPent)][NMeD]-Morpholide; lactam N-11) | – | 9.72 | – | B (a compound having 3 or more and less than 10 is denoted as B) | C (A compound having a KD ratio of 0.1 or more and less than 3 is denoted as C) | –
CC[C@H](C)[C@@H]1NC(=O)[C@H](CC(C)C)N(CC)C(=O)C[C@@H](C(=O)N2CCOCC2)N(C)C(=O)[C@H](C2CCCC2)N(C)C(=O)C2(CCCC2)NC(=O)[C@@H]2CCCN2C(=O)[C@H](CCc2cc(F)c(C(F)(F)F)c(F)c2)NC(=O)CN(C)C(=O)[C@H](Cc2ccc(C(F)(F)F)cc2)N2CCCC[C@@H](C2=O)N(C)C(=O)CN(C)C1=O [PP0588] | B (a compound having 3 or more and less than 10 is denoted as B) | 9.96 | B (a compound having 3 or more and less than 10 is denoted as B) | – | – | –
CCC(CC)[C@H]1C(=O)N(C)[C@H](C(=O)N(C)C)CC(=O)N(C)[C@H]2CCC/C=C/c3ccc(cc3)C[C@@H](C(=O)N(C)CC(=O)N[C@@H](CCc3ccc(Cl)c(Cl)c3)C(=O)N3CCC[C@H]3C(=O)NC3(CC(C)(C)C3)C(=O)N1C)N1CC/C=C\C[C@@H](C1=O)N(C)C(=O)CN(C)C(=O)[C@H]([C@@H](C)CC)NC2=O [PP2603] | – | 9.36 | – | – | – | HRAS/KRAS (ratio of KD value with respect to GDP-bound HRAS wild-type protein to KD value with respect to KRAS) ([1]; SPR KD ratio HRAS/KRAS, class symbols): A (a compound having 10 or more and less than 20 is denoted as A); NRAS/KRAS (ratio of KD value with respect to GDP-bound NRAS wild-type protein to KD value with respect to KRAS) ([3]; SPR KD ratio NRAS/KRAS, class symbols): AA (a compound having 20 or more is denoted as AA)
CC[C@H](C)[C@@H]1NC(=O)[C@H](CC(C)C)N(C)C(=O)C[C@@H](C(=O)N2CCOCC2)N(C)C(=O)[C@H](C2CCCC2)N(C)C(=O)C2(CCCC2)NC(=O)[C@@H]2CCCN2C(=O)[C@H](CCc2ccc(C(F)(F)F)c(Cl)c2)NC(=O)CN(C)C(=O)[C@H](Cc2ccc(C(F)(F)F)cc2)N(CCCOC)C(=O)[C@@H]2CCN2C(=O)[C@H](C)N(C)C1=O [PP0119] ([NMeL]I[NMeA][Aze][X31][Sar][hPhe(3-Cl-4-CF3)]P[Ac5c][NMeGly(cPent)][NMeD]-Morpholide; lactam N-11) | – | 10.00 | – | C (A compound having a KD ratio of 0.1 or more and less than 3 is denoted as C) | C (A compound having a KD ratio of 0.1 or more and less than 3 is denoted as C) | –
CCC[C@H]1C(=O)N[C@@H]([C@@H](C)CC)C(=O)N(C)CC(=O)N(C)[C@H]2C/C=C\CCN(C2=O)[C@@H](Cc2ccc(C(F)(F)F)cc2)C(=O)N(C)CC(=O)N[C@@H](CCc2cc(F)c(C(F)(F)F)c(F)c2)C(=O)N2C[C@H](OCC)C[C@H]2C(=O)NC2(CCC2)C(=O)N(C)[C@@H](C2CCCC2)C(=O)N(C)[C@H](C(=O)N(C)CCOC)CC(=O)N1C [PP1331, (2S,8S,12R,14S,20S,23S,27S,30S,36S,38Z)-20-cyclopentyl-8-[2-[3,5-difluoro-4-(trifluoromethyl)phenyl]ethyl]-12-ethoxy-N-(2-methoxyethyl)-N,4,19,22,26,32,35-heptamethyl-30-[(1S)-1-methylpropyl]-3,6,9,15,18,21,25,28,31,34,42-undecaoxo-27-propyl-2-[[4-(trifluoromethyl)phenyl]methyl]spiro[1,4,7,10,16,19,22,26,29,32,35-undecazatricyclo[34.5.1.0^10,14]dotetracont-38-ene-17,1′-cyclobutane]-23-carboxamide] | – | – | – | – | – | HRAS/KRAS (ratio of KD value for HRAS to KD value for KRAS) ([1]; KD ratio class): A (a compound having 10 or more and less than 20 is denoted as A); pKd ([2]; SPR, Single Cycle Kinetics, 1:1 binding model): 10.10; NRAS/KRAS (ratio of KD value for NRAS to KD value for KRAS) ([3]; KD ratio class): A (a compound having 10 or more and less than 20 is denoted as A)
CCC[C@H]1C(=O)N[C@@H]([C@@H](C)CC)C(=O)N(C)CC(=O)N(C)[C@H]2C/C=C\CCN(C2=O)[C@@H](Cc2ccc(C(F)(F)F)cc2)C(=O)N(C)CC(=O)N[C@@H](CCc2ccc(C(F)(F)F)c(Cl)c2)C(=O)N2C[C@H](OCC)C[C@H]2C(=O)NC2(CC(C)(C)C2)C(=O)N(C)[C@@H](CC(F)(F)F)C(=O)N(C)[C@H](C(=O)N(C)C)CC(=O)N1C [PP2975] | – | – | – | A (a compound having 10 or more and less than 20 is denoted as A) | A (a compound having 10 or more and less than 20 is denoted as A) | pKd ([2]; SPR, Single Cycle Kinetics): 9.02
